Converted amounts (≈) assume the structure as drawn. Each block holds one compound with its values, some of them ahead of it.
How the values were obtained:
Mdm2 [1] = biological target: T1, Mdm2 (Homo sapiens (Human), UniProt Q00987); assay: NMR (AIDA) ligand binding to Mdm2; settings: Table 8, Formula II compounds, measured by NMR (AIDA)
Method: All NMR spectra were acquired at 298 K on a Bruker DRX 600 MHz spectrometer equipped with a cryoprobe. Typically, NMR samples contained 0.1-0.2 mM protein in 50 mM KH2PO4 and 50 mM Na2HPO4, pH 7.4, containing 150 mM NaCl and 5 mM β-Mercaptoethanol. Water suppression was carried out using the WATERGATE sequence. NMR data were processed using the Bruker program Xwin-NMR version 3.5. NMR ligand binding experiments were carried out in an analogous way to those previously described. See D'Silva L., et. al., J. Am. Chem. Soc. 2005, 127, 13220-13226 and Popowicz G. M., et. al., Cell Cycle. 2007, 6, 2386-2392. The maximum concentration of DMSO at the end of titration experiments was less than 1%. The pH was maintained constant during the entire titration. The 1H-15N-HSQC spectra were recorded using fast HSQC pulse sequence as described by Mori et. al., J. Magn. Reson. B 1995, 108, 94-98.
The binding constants (Ki values), of representative Formula II compounds was determined using fluorescence polarization or NMR spectroscopy and are illustrated in Table 8.

Mdm2 [2] = biological target: T1, Mdm2; assay: Fluorescence polarization (FP) competition binding assay with Mdm2
Method: Fluorescence polarization (FP) assay was employed to measure the binding affinities of small molecules with Mdm2.
Protocol for Fluorescence Polarization (FP) Assay:
Fluorescent polarization experiments were performed as follows. […] The fluorescence intensities parallel (Intparallel) and perpendicular (Intperpedicular) to the plane of excitation were measured in parallel perpendicular black 384-well NBS assay plates (Corning) at room temperature (˜20° C.). […] All fluorescence polarization values were expressed in millipolarization units (mP). […] Competition binding assays were performed using the 10 nM fluorescent P4 peptide and 100 nM Mdm2. Binding constant and inhibition curves were fitted using the SigmaPlot (SPSS Science Software).

[3] = Water (aqueous) solubility; type: physicochemical
[4] = Table 8, Formula II compounds, measured by FP
[5] = read-out: Ki (inhibition constant), Table 1, compounds 8 (C-2 ethyl esters), FP assay, n.i. = no interaction
[6] = Table 1, compounds 8 (C-2 ethyl esters), FP assay, n.i. = no interaction

T1 sequence (Q00987 whole entry): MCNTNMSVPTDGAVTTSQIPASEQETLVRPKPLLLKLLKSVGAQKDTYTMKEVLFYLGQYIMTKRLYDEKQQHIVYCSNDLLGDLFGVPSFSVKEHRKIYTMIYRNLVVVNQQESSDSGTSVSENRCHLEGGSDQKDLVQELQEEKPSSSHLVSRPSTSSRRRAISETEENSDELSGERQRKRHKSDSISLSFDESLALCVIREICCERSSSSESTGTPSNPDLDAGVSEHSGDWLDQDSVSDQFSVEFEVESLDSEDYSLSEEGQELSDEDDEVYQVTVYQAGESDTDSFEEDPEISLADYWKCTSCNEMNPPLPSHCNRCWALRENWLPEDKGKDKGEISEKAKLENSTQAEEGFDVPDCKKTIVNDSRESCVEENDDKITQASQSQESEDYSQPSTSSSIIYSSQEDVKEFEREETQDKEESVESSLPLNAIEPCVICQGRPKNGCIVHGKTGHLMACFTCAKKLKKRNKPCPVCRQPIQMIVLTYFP

Structure (SMILES): CC(C)(C)NC(=O)C(c1c(C(=O)O)[nH]c2cc(Cl)ccc12)N(C=O)Cc1cccc(F)c1 (stereo not shown) [Compound 7C, 3-(2-(tert-butylamino)-1-(N-(3-fluorobenzyl)formamido)-2-oxoethyl)-6-chloro-1H-indole-2-carboxylic acid]
Ki (Mdm2 [2]): 0.81 µM

Structure (SMILES): CC(C)(C)NC(=O)C(c1c(C(=O)O)[nH]c2cc(Cl)ccc12)N(C=O)Cc1ccccc1F (stereo not shown) [Compound 7D, 3-(2-(tert-butylamino)-1-(N-(2-fluorobenzyl)formamido)-2-oxoethyl)-6-chloro-1H-indole-2-carboxylic acid]
Ki (Mdm2 [2]): 1.7 µM

Structure (SMILES): CC(C)(C)NC(=O)C(c1c(C(=O)O)[nH]c2cc(Cl)ccc12)N(C=O)Cc1cc(F)ccc1F (stereo not shown) [Compound 7H, 3-(2-(tert-butylamino)-1-(N-(2,5-difluorobenzyl)formamido)-2-oxoethyl)-6-chloro-1H-indole-2-carboxylic acid]
Ki (Mdm2 [2]): 2.5 µM

Structure (SMILES): CC(C)(C)NC(=O)C(c1c(C(=O)O)[nH]c2cc(Cl)ccc12)N(C=O)Cc1cc(F)c(F)c(F)c1 (stereo not shown) [Compound 7M, 3-(2-(tert-butylamino)-2-oxo-1-(N-(3,4,5-trifluorobenzyl)formamido)ethyl)-6-chloro-1H-indole-2-carboxylic acid]
solubility ([3]; aqueous medium): 850 µg/mL (≈ 1710 µM)

Structure (SMILES): CCOC(=O)c1[nH]c2cc(Cl)ccc2c1C(C(=O)NCc1ccccc1)N(CC(C)C)C(C)=O (stereo not shown) [Compound 8c, Ethyl 3-(2-(benzylamino)-1-(N-isobutylacetamido)-2-oxoethyl)-6-chloro-1H-indole-2-carboxylate]
Ki (Mdm2 [2]; [5]): 4 µM

Structure (SMILES): CCOC(=O)c1[nH]c2cc(Cl)ccc2c1C(C(=O)NCc1ccccc1)N(Cc1ccccc1)C(C)=O (stereo not shown) [Compound 8d, Ethyl 3-(1-(N-benzylacetamido)-2-(benzylamino)-2-oxoethyl)-6-chloro-1H-indole-2-carboxylate]
Ki (Mdm2 [2]; read-out: Ki (inhibition constant)): 6 µM

Structure (SMILES): CCOC(=O)c1[nH]c2cc(Cl)ccc2c1C(C(=O)NC1CCCCC1)N(Cc1ccc(Cl)c(Cl)c1)C(C)=O (stereo not shown) [Compound 8g, Ethyl 6-chloro-3-(2-(cyclohexylamino)-1-(N-(3,4-dichlorobenzyl)acetamido)-2-oxoethyl)-1H-indole-2-carboxylate]
Ki (Mdm2 [2]; [5]): 9 µM

Structure (SMILES): CCOC(=O)c1[nH]c2cc(Cl)ccc2c1C(C(=O)NC1CCCCC1)N(C=O)Cc1ccc(Cl)cc1 (stereo not shown) [Compound 8j, Ethyl 6-chloro-3-(1-(N-(4-chlorobenzyl)formamido)-2-(cyclohexylamino)-2-oxoethyl)-1H-indole-2-carboxylate]
Ki (Mdm2 [2]; [5]): 50 µM

Structure (SMILES): CCOC(=O)c1[nH]c2cc(Cl)ccc2c1C(C(=O)NC1CCCCC1)N(C=O)Cc1ccc(F)cc1 (stereo not shown) [Compound 8k, Ethyl 6-chloro-3-(2-(cyclohexylamino)-1-(N-(4-fluorobenzyl)formamido)-2-oxoethyl)-1H-indole-2-carboxylate]
Ki (Mdm2 [2]; [5]): 30 µM

Structure (SMILES): CCOC(=O)c1[nH]c2cc(Cl)ccc2c1C(C(=O)NC(C)(C)C)N(C=O)Cc1ccc(-c2ccccc2)cc1 (stereo not shown) [Compound 8s, Ethyl 3-(1-(N-(biphenyl-4-ylmethyl)formamido)-2-(tert-butylamino)-2-oxoethyl)-6-chloro-1H-indole-2-carboxylate]
Ki (inhibition constant) (Mdm2 [2]; [6]): n.i.

Structure (SMILES): CCOC(=O)c1[nH]c2cc(Cl)ccc2c1C(C(=O)NC(C)(C)C)N(C=O)Cc1ccc(Oc2ccccc2)cc1 (stereo not shown) [Compound 8t, Ethyl 3-(2-(tert-butylamino)-2-oxo-1-(N-(4-phenoxybenzyl)formamido)ethyl)-6-chloro-1H-indole-2-carboxylate]
Ki (inhibition constant) (Mdm2 [2]; [6]): n.i.

Structure (SMILES): COc1ccc(C2=N[C@@H](c3ccc(Cl)cc3)[C@@H](c3ccc(Cl)cc3)N2C(=O)N2CCNC(=O)C2)c(OC(C)C)c1 [Nutlin-3a, reference compound]
aqueous solubility [3]: 100 µg/mL (≈ 172 µM)

The next lines start with the values.

Ki (Mdm2 [1]): 1.7 µM
Structure (SMILES): CCOC(=O)c1[nH]c2cc(Cl)ccc2c1C(NC(CC(C)C)C(=O)OC)C(=O)NCc1ccccc1 (stereo in doubt) [KK229, Ethyl 3-(2-(benzylamino)-1-(((R)-1-methoxy-4-methyl-1-oxopentan-2-yl)amino)-2-oxoethyl)-6-chloro-1H-indole-2-carboxylate]

Ki (Mdm2 [2]; [4]): 9 µM
Structure (SMILES): CCOC(=O)c1[nH]c2cc(Cl)ccc2c1C(NC(CC(C)C)C(=O)NCCO)C(=O)NCc1ccccc1 (stereo in doubt) [KK259, Ethyl 3-(2-(benzylamino)-1-(((S)-1-((2-hydroxyethyl)amino)-4-methyl-1-oxopentan-2-yl)amino)-2-oxoethyl)-6-chloro-1H-indole-2-carboxylate]

Ki (Mdm2 [2]; [4]): 11 µM
Structure (SMILES): CCOC(=O)c1[nH]c2cc(Cl)ccc2c1C(NC(CC(C)C)C(=O)NCCCN1CCOCC1)C(=O)NCc1ccccc1 (stereo in doubt) [KK261, Ethyl 3-(2-(benzylamino)-1-(((S)-4-methyl-1-((3-morpholinopropyl)amino)-1-oxopentan-2-yl)amino)-2-oxoethyl)-6-chloro-1H-indole-2-carboxylate]

Ki (Mdm2 [2]; read-out: Ki (inhibition constant), Table 2, compounds 9 (free C-2 carboxylic acids), FP assay): 2.5 µM
Structure (SMILES): CC(C)(C)NC(=O)C(c1c(C(=O)O)[nH]c2cc(Cl)ccc12)N(C=O)Cc1ccc(-c2ccccc2)cc1 (stereo not shown) [Compound 9s, 3-(1-(N-(biphenyl-4-ylmethyl)formamido)-2-(tert-butylamino)-2-oxoethyl)-6-chloro-1H-indole-2-carboxylic acid]

Ki (Mdm2 [2]; [4]): < 1 µM
Structure (SMILES): CCOC(=O)c1[nH]c2cc(Cl)ccc2c1C(N[C@H](C(=O)OC)C(C)C)C(=O)NCc1ccccc1 (stereo partly drawn) [KK228, Ethyl 3-(2-(benzylamino)-1-(((S)-1-methoxy-3-methyl-1-oxobutan-2-yl)amino)-2-oxoethyl)-6-chloro-1H-indole-2-carboxylate]

Ki (Mdm2 [2]; [4]): 10 µM
Structure (SMILES): CCOC(=O)c1[nH]c2cc(Cl)ccc2c1C(N[C@@H](CC(C)C)C(=O)NCCN1CCOCC1)C(=O)NCc1ccccc1 (stereo partly drawn) [KK242, Ethyl 3-(2-(benzylamino)-1-(((S)-4-methyl-1-((2-morpholinoethyl)amino)-1-oxopentan-2-yl)amino)-2-oxoethyl)-6-chloro-1H-indole-2-carboxylate]

Ki (Mdm2 [2]; [4]): 1.4 µM
Structure (SMILES): CCOC(=O)c1[nH]c2cc(Cl)ccc2c1C(NC(CC(C)C)C(=O)O)C(=O)NCc1ccccc1 (stereo not shown) [KK272, 2-((2-(benzylamino)-1-(6-chloro-2-(ethoxycarbonyl)-1H-indol-3-yl)-2-oxoethyl)amino)-4-methylpentanoic acid]

Ki (Mdm2 [1]): 0.4 µM
Structure (SMILES): CC(C)CC(NC(C(=O)NCc1ccccc1)c1c(C(=O)O)[nH]c2cc(Cl)ccc12)C(=O)NCCN1CCOCC1 (stereo not shown) [KK273, 3-(2-(benzylamino)-1-(4-methyl-1-(2-morpholinoethylamino)-1-oxopentan-2-ylamino)-2-oxoethyl)-6-chloro-1H-indole-2-carboxylic acid]

Ki (Mdm2 [2]; [4]): 9 µM
Structure (SMILES): CC(C)CC(NC(C(=O)NCc1ccccc1)c1c(C(=O)O)[nH]c2cc(Cl)ccc12)C(=O)NCCO (stereo not shown) [KK278, 3-(2-(benzylamino)-1-((1-((2-hydroxyethyl)amino)-4-methyl-1-oxopentan-2-yl)amino)-2-oxoethyl)-6-chloro-1H-indole-2-carboxylic acid]

Ki (Mdm2 [2]; [4]): 7 µM
Structure (SMILES): CC(C)CC(NC(C(=O)NCc1ccccc1)c1c(C(=O)O)[nH]c2cc(Cl)ccc12)C(=O)NCCCN1CCOCC1 (stereo not shown) [KK279, 3-(2-(benzylamino)-1-((4-methyl-1-((3-morpholinopropyl)amino)-1-oxopentan-2-yl)amino)-2-oxoethyl)-6-chloro-1H-indole-2-carboxylic acid]

— patent US9187441B2, “p53-Mdm2 antagonists” (University of Pittsburgh—Of the Commonwealth System of …, priority 2010, dated 2015)
